US20230145213A1, “Pre-conditioned mesenchymal stem cells and preparations and applications thereof” (BUDDHIST TZU CHI MEDICAL FOUNDATION, priority 2021, published 2023)

Tests used:
SH-SY5Y cells [1] = assay: Transwell co-culture assay, SH-SY5Y cell viability by MTT; assay type: cell-based
Excerpt: In this and the following examples, human neuroblastoma cell line SH-SY5Y (a cell model of dopaminergic neurons for Parkinson's disease research) that was damaged by 6-hydroxydopamine (6-OHDA, i.e., 2,4,5-trihydroxyphenethylamine)-induced oxidative stress was used to assess the effects of GA on the homing ability of MSCs and the neuroprotective effects of GA pre-treated MSCs and the exosomes derived therefrom. SH-SY5Y cells were obtained from the American Type Culture Collection (ATCC; Manassas, Va., USA). The SH-SY5Y cells were cultured in a humidified incubator at 37° C. with 5% CO2. DMEM (Life Technologies, USA) supplemented with 10% FBS (Hyclone, Thermo Fisher Scientific, USA) and 1% penicillin-streptomycin (Gibco, Thermo Fisher Scientific, USA) was used for culturing of the SH-SY5Y cells.
To determine whether GA can promote MSCs to rescue nerve cell death, transwell co-culture assay was performed where WJMSCs (2×10^4 cells) pre-treated with 0, 20, 40, or 80 μM GA for 24 hours were placed in the upper chamber of a transwell insert, and SH-SY5Y cells (3×10^4 cells) treated with 100 μM 6-OHDA were seeded in the bottom well of the transwell plate. After co-culture of the cells at 37° C. for 24 hours, the SH-SY5Y cell viability was determined by MTT assay. […]

SH-SY5Y cells [2] = assay: Autophagic flux in SH-SY5Y cells by LC3B immunofluorescence and western blotting; assay type: cell-based, human
Procedure: SH-SY5Y cells under 6-OHDA stimulation were treated with exosomes isolated either from GA pre-treated WJMSCs (80 μM GA for 24 hours) or untreated WJMSCs. For immunofluorescence staining, the treated cells were fixed in 4% PFA, incubated with an anti-LC3B primary antibody followed by a fluorophore-conjugated secondary antibody, and stained with 4′,6-diamidino-2-phenylindole (DAPI). The SH-SY5Y cells were then visualized by a fluorescence microscope (Olympus).

SH-SY5Y cells [3] = assay: Western blotting of apoptosis-related, anti-apoptotic and OXPHOS proteins in 6-OHDA-stimulated SH-SY5Y cells; assay type: cell-based, human; details: FIG. 5C
Procedure: To further investigate the molecular events associated with the anti-apoptotic effects of GA pre-treated MSC-derived exosomes, the expression of apoptosis-related and anti-apoptotic proteins in 6-OHDA-stimulated SH-SY5Y cells was measured using western blotting. The damaged SH-SY5Y cells were treated with exosomes isolated either from GA pre-treated WJMSCs (80 μM GA for 24 hours) or untreated WJMSCs.
Moreover, the expression of mitochondrial proteins involved in oxidative phosphorylation (OXPHOS), including ATP5A, UQCRC2, MTCO1, SDHB, and NDUFB8, was examined by western blotting.

Row | Structure (SMILES) | protective effect of the GA pre-treated WJMSCs on SH-SY5Y viability in the presence of GW4869 (SH-SY5Y cells [1]; co-culture assay with exosome generation inhibitor, FIG. 3B) | LC3 puncta (autophagosome formation) in SH-SY5Y cells (SH-SY5Y cells [2]; immunofluorescence, anti-LC3B, FIG. 6A) | autophagy-related protein expression (Beclin-1, LC3B, p62) in SH-SY5Y cells (SH-SY5Y cells [2]; western blotting, FIG. 6B) | SH-SY5Y cell viability, effect of 6-OHDA (SH-SY5Y cells [1]; 100 μM 6-OHDA, MTT, FIG. 3A) | expression of mitochondrial OXPHOS proteins (ATP5A, UQCRC2, MTCO1, SDHB, NDUFB8) (SH-SY5Y cells [3])
1 | O=C(/C=C/c1ccc(/C=C/C(=O)Nc2ccc(C3=NCCN3)cc2)cc1)Nc1ccc(C2=NCCN2)cc1 [GW4869] | suppressed | – | – | – | –
2 | NCCc1cc(O)c(O)cc1O [6-OHDA, 2,4,5-trihydroxyphenethylamine] | – | abundant | increased Beclin-1 and LC3B expression but decreased p62 protein expression | decreased SH-SY5Y cell viability | downregulated the expression of the OXPHOS proteins
